Measurements from patent publication US20240173283A1, “PROPHYLACTIC AGENT OR THERAPEUTIC AGENT FOR SIDE EFFECTS OF ANTHRACYCLINE ANTICANCER AGENT” (Kyushu University, National University Corporation, priority 2021, published 2024).

Columns and labels:
[1] = test system: acrolein in myocardial tissues; assay: Acrolein western blot of myocardial tissues, doxorubicin cardiomyopathy model; conditions: day 14, FIG. 4
Source text: (§1) The obtained image was quantitatively analyzed in image J (NIH). GAPDH (Santa Cruz Biotechnology Inc., sc-32233) was used as an internal control.

[2] = test system: doxorubicin cardiomyopathy model; assay: Echocardiography in doxorubicin cardiomyopathy model; assay type: in vivo, mouse; conditions: FIG. 3
[3] = test system: ALAS1; assay: Alas1 western blot in mouse heart tissues; assay type: in vivo; conditions: doxorubicin 6 mg/kg/dose, days 0, 2, 4; day 7; GAPDH internal control; FIG. 6B
Source text: as §1

[4] = test system: EL-4 cells (mouse malignant lymphoma cells); assay: Cell survival evaluation by Trypan Blue staining in EL-4 cells; assay type: cell-based; conditions: 24 hours, FIG. 10A
Method: 5′-ALA (1 mM) was added to EL-4 cells (mouse malignant lymphoma cells), and doxorubicin (1 μM) was added thereto 1 hour later. The cells were collected 24 hours after doxorubicin addition, and dead cells were stained by Trypan Blue staining. The numbers of live cells and dead cells were counted in an automatic cell counter (Countess II FL, Thermo Fisher Scientific Inc.). Cell survival evaluation was conducted from the ratio (%) of the number of live cells to the total number of cells.

[5] = test system: mitochondrial heme in rat primary cardiomyocytes; assay: Mitochondrial heme (QuantiChrom Heme Assay Kit) in cardiomyocytes; assay type: cell-based; conditions: FIG. 8C
[6] = test system: mitochondrial iron in rat primary cardiomyocytes; assay: Mito-FerroGreen fluorescent staining of mitochondrial iron in cardiomyocytes; assay type: cell-based; conditions: FIGS. 8A and 8B
Method: 5′-ALA (1 mM) was added to isolated rat primary cardiomyocytes, and doxorubicin (2 M) was added from 1 hour later. The cells were washed once with PBS 24 hours after doxorubicin addition and cultured for 30 minutes in a medium supplemented with Mito-FerroGreen (5 µM) for fluorescent staining of mitochondrial iron. The cells were washed with PBS again and then observed under a fluorescence microscope (BZ-X800, Keyence Corp.) (FIG. 8A). The signal intensity of the obtained image was quantitatively analyzed in image J (NIH).

[7] = test system: ALAS1; assay: Alas1 western blot in rat primary cardiomyocytes; assay type: cell-based; conditions: doxorubicin 2 μM, 24 hours; β-Actin internal control; FIG. 6A
Source text: The obtained image was quantitatively analyzed in image J (NIH). β-Actin (Santa Cruz Biotechnology Inc., sc-47778) was used as an internal control.

[8] = test system: malondialdehyde (MDA) in myocardial tissues; assay: MDA (TBARS assay) in myocardial tissues, doxorubicin cardiomyopathy model; conditions: day 14, FIG. 4
[9] = test system: protoporphyrin IX (PpIX); assay: Protoporphyrin IX measurement by mass spectrometer in cardiomyocytes; assay type: cell-based, rat; conditions: doxorubicin 2 μM, 24 hours; FIG. 7
Method: After doxorubicin (2 μM, 24 hours) addition to isolated rat primary cardiomyocytes, the cells were collected with PBS. 50% acetic acid and a dimethylformamide (DMF)/2-propanol (IPA) mixed solution were added to the collected sample, and the mixture was vigorously mixed by vortex. After centrifugation, a supernatant was recovered (supernatant 1), and a DMF/IPA mixed solution was added again to pellets, followed by centrifugation again. The supernatant thus obtained by centrifugation (supernatant 2) and the supernatant 1 were combined and used as protoporphyrin IX extracts. Acetonitrile was added to the extracts, and the mixture was deproteinized and then centrifuged at 20000 g for 20 minutes. Then, a supernatant was applied to a mass spectrometer (column: 1.8 UM, 2.1×100 mm; Waters, MA, USA, measurement equipment: Q Exactive Ultimate 3000; Thermo Fisher Scientific Inc.) to measure protoporphyrin IX (PPIX) in the cardiomyocytes.

[10] = test system: iron in myocardial tissues; assay: Mitochondrial total iron (ferrozine method) in mouse heart tissues; conditions: day 14, FIG. 9A
[11] = test system: Primary cardiomyocytes; assay: Malondialdehyde (MDA) measurement by TBARS assay in doxorubicin-treated primary cardiomyocytes; assay type: cell-based, rat; conditions: FIG. 1
Method: Primary cardiomyocytes were isolated by trypsin and collagenase treatment of the heart harvested from a neonatal rat, and inoculated onto a petri dish. After culture for several days, the culture medium was replaced with a serum-free medium (DMEM), and 2 μM (final concentration) doxorubicin was added from 24 hours later in the serum-free medium, and cardiomyocytes were lysed with a RIPA buffer and collected 24 hours after doxorubicin addition. Aminolevulinic acid (5′-ALA, 1 mM) or ferrostatin-1 (Fer-1, 50 µM) was added 1 hour before doxorubicin addition.

[12] = test system: Primary cardiomyocytes; assay: Cell death evaluation assay (Cell Counting Kit-F) in doxorubicin-treated primary cardiomyocytes; assay type: cell-based, rat; conditions: FIG. 2
Method: Primary cardiomyocytes were isolated by trypsin and collagenase treatment of the heart harvested from a neonatal rat, and inoculated onto a petri dish. After culture for several days, the culture medium was replaced with a serum-free medium (DMEM), and 2 μM (final concentration) doxorubicin was added from 24 hours later in the serum-free medium. Aminolevulinic acid (5′-ALA, 1 mM) or ferrostatin-1 (Fer-1, 50 μM) was added 1 hour before doxorubicin addition.

[13] = test system: Hela cells (human uterine cervical cancer cells); assay: Cell death evaluation assay (Cell Counting Kit-F) in Hela cells; assay type: cell-based; conditions: 24 hours, FIG. 10B
Method: 5′-ALA (1 mM) was added to Hela cells (human uterine cervical cancer cells), and doxorubicin (2 μM) was added thereto 1 hour later. […] The obtained results were normalized with those of the control group defined as 1, and presented as data.

[14] = test system: mitochondrial heme in myocardial tissues; assay: Mitochondrial heme (QuantiChrom Heme Assay Kit) in mouse heart tissues; conditions: day 14, FIG. 9B
[15] = test system: Primary cardiomyocytes; assay: Cell death evaluation assay in primary cardiomyocytes with various anthracycline anticancer agents; assay type: cell-based, rat; conditions: 5′-ALA 1 mM added 2 hours before DOX, DNR, THP, IDR or EPI (1 or 2 μM); 26 hours after addition; FIG. 5
Method: Primary cardiomyocytes were isolated by trypsin and collagenase treatment of the heart harvested from a neonatal rat, and inoculated onto a petri dish. After culture for several days, the culture medium was replaced with a serum-free medium (DMEM), and doxorubicin (DOX; 1 or 2 μM), daunorubicin (DNR; 1 or 2 μM), pirarubicin (THP; 1 or 2 μM), idarubicin (IDR; 1 or 2 μM), or epirubicin (EPI; 1 or 2 μM) was added (final concentrations for all) from 24 hours later in the serum-free medium. Aminolevulinic acid (5′-ALA, 1 mM) was added 2 hours before doxorubicin addition. […] The obtained results were normalized with those of the control group defined as 1, and presented as data.

[16] = doxorubicin 6 mg/kg/dose, days 0, 2, 4
[17] = 5′-ALA 300 mg/kg/day in drinking water from 3 days before doxorubicin
[18] = 5′-ALA 1 mM added 1 hour before doxorubicin 2 μM, 24 hours after doxorubicin
[19] = 5′-ALA oral 300 mg/kg/day in drinking water from 3 days before initial doxorubicin

COc1cccc2c1C(=O)c1c(O)c3c(c(O)c1C2=O)C[C@@](O)(C(=O)CO)C[C@@H]3O[C@H]1C[C@H](N)[C@H](O)[C@H](C)O1 [doxorubicin]
lipid peroxide (acrolein) level in myocardial tissues [1, 16]: increase in lipid peroxide (acrolein and MDA) levels | left ventricular contractility (left ventricular ejection fraction, LVEF) ([2]; doxorubicin 6 mg/kg/dose, days 0, 2, 4, tail vein): reduction in left ventricular contractility | level of ALAS1 in myocardial tissues [3]: decreased | cell death-inducing effect in EL-4 cells (ratio of live cells to total cells) ([4]; doxorubicin 1 μM): a cell death-inducing effects, which are the drug efficacy of doxorubicin, were observed | mitochondrial heme in cardiomyocytes ([5]; doxorubicin 2 μM, 24 hours): a heme synthesis disorder is induced | mitochondrial iron in cardiomyocytes (Mito-FerroGreen signal intensity) ([6]; doxorubicin 2 μM, 24 hours): an iron excess state occurs | level of ALAS1 in cardiomyocytes [7]: decreased | lipid peroxide (MDA) level in myocardial tissues [8, 16]: increase in lipid peroxide (acrolein and MDA) levels | level of protoporphyrin IX (PpIX) in cardiomyocytes [9]: decreased | total amount of iron in heart mitochondria (myocardial tissues) [10, 16]: an iron excess state is induced | lipid peroxide level (MDA) in cardiomyocytes ([11]; doxorubicin 2 μM, 24 hours): increase in lipid peroxide level in cardiomyocytes | cell death (ferroptosis) of cardiomyocytes ([12]; doxorubicin 2 μM, 24 hours): cell death (ferroptosis) of cardiomyocytes induced by doxorubicin | cell death-inducing effect in Hela cells ([13]; doxorubicin 2 μM): a cell death-inducing effects, which are the drug efficacy of doxorubicin, were observed | mitochondrial heme in myocardial tissues [14, 16]: heme synthesis disorder is induced

NCC(=O)CCC(=O)O [5′-ALA, 5-aminolevulinic acid]
lipid peroxide (acrolein) level in myocardial tissues [1, 17]: significantly suppressed increase in lipid peroxide (acrolein and MDA) levels | left ventricular contractility (left ventricular ejection fraction, LVEF) ([2]; 5′-ALA 300 mg/kg/day in drinking water from 3 days before doxorubicin (6 mg/kg/dose, days 0, 2, 4, tail vein), echocardiography 7 and 14 days): significantly improved reduction in left ventricular contractility | attenuation of cell death-inducing effect of doxorubicin in EL-4 cells ([4]; 5′-ALA 1 mM added 1 hour before doxorubicin 1 μM): the effects were not attenuated | mitochondrial heme in cardiomyocytes [5, 18]: the disorder is normalized | mitochondrial iron in cardiomyocytes (Mito-FerroGreen signal intensity) [6, 18]: the iron excess state is normalized | lipid peroxide (MDA) level in myocardial tissues [8, 17]: significantly suppressed increase in lipid peroxide (acrolein and MDA) levels | total amount of iron in heart mitochondria (myocardial tissues) [10, 19]: the iron excess state is normalized | lipid peroxide level (MDA) in cardiomyocytes ([11]; 5′-ALA 1 mM added 1 hour before 2 μM doxorubicin, collected 24 hours after doxorubicin): suppressed increase in lipid peroxide level | cell death of cardiomyocytes [15]: suppressed the cell death of cardiomyocytes in all the administration groups | cell death (ferroptosis) of cardiomyocytes ([12]; 5′-ALA 1 mM added 1 hour before 2 μM doxorubicin, 24 hours after doxorubicin): suppressed the cell death (ferroptosis) of cardiomyocytes | attenuation of cell death-inducing effect of doxorubicin in Hela cells ([13]; 5′-ALA 1 mM added 1 hour before doxorubicin 2 μM): the effects were not attenuated | mitochondrial heme in myocardial tissues [14, 19]: the disorder is normalized

CCOC(=O)c1ccc(NC2CCCCC2)c(N)c1 [Fer-1, ferrostatin-1]
lipid peroxide level (MDA) in cardiomyocytes ([11]; Fer-1 50 µM added 1 hour before 2 μM doxorubicin, collected 24 hours after doxorubicin): equivalent to the effect of Fer-1 | cell death (ferroptosis) of cardiomyocytes ([12]; Fer-1 50 μM added 1 hour before 2 μM doxorubicin, 24 hours after doxorubicin): equivalent to the effect of Fer-1
